Results as given in the Kinase Knowledgebase extract (Sharma et al. 2016).
Where “and” joins values, the source holds several entries; their conditions need not be identical. Equal values may be shown once.

Legend:
EGFR (murine) = EGFR (murine) (UniProt P00533); details: nih3t3/c7
EGFR (human) = EGFR (human) (UniProt P00533); details: a431
EGFR (human), sequence (P00533 whole entry, looked up): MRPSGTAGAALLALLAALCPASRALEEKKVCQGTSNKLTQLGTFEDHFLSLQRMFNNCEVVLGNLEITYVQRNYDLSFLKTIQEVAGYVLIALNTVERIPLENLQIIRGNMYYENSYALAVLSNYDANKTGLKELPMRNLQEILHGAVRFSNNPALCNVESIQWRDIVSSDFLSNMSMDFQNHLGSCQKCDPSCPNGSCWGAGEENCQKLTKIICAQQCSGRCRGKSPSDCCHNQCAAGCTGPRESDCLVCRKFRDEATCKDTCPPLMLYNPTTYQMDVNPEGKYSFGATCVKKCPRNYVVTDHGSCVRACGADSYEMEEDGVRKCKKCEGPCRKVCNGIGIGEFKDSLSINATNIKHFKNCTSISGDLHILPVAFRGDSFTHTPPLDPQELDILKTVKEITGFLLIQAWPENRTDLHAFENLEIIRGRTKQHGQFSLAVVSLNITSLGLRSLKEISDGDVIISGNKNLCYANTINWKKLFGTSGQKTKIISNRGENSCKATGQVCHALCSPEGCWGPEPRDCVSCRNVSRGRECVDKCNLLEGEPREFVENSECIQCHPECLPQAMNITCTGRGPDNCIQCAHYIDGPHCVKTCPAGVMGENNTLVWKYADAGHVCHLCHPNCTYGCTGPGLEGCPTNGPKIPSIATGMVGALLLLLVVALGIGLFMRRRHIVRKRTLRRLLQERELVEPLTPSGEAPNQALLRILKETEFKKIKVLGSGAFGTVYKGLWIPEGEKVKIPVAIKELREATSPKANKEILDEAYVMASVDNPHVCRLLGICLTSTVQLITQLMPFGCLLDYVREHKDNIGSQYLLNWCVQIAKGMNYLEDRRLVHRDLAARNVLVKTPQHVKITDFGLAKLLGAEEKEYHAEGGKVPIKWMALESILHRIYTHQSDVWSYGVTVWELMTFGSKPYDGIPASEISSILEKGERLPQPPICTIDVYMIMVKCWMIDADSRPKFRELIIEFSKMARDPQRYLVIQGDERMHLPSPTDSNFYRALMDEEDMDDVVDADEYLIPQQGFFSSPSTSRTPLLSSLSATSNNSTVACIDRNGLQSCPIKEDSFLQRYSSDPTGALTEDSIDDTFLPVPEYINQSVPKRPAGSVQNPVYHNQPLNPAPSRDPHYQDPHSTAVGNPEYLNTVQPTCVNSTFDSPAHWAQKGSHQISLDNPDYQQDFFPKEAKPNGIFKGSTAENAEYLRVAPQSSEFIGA

EGFR (murine), sequence (P00533 whole entry, looked up): as above

SMILES	IC50 (EGFR (murine))	IC50 (EGFR (human))
CC(=O)ON=C(Cl)C1=C[NH+]([O-])c2cc(Cl)ccc2[NH+]1[O-] (stereo not drawn)	> 50 µM	
N#CC(C#N)=CNNc1cccc(Cl)c1	> 50 µM	
CC(=O)C1=C(c2ccccc2)[NH+]([O-])c2ccccc2[NH+]1[O-] (stereo not drawn)	> 100 µM	
CC(C)(C)c1cc(/C=C(\C#N)S(=O)(=O)/C(C#N)=C/c2cc(C(C)(C)C)c(O)c(C(C)(C)C)c2)cc(C(C)(C)C)c1O	> 100 µM	
Clc1cccc(Nc2ncnc3ccccc23)c1	0.16 µM and 0.2 µM	20 µM

Other lines, results leading:

IC50 (EGFR (murine))	IC50 (EGFR (human))	SMILES
12.5 µM		Cc1cc2nc(CSCCCSCc3nc4cc(C)c(C)cc4nc3-c3ccccc3)c(-c3ccccc3)nc2cc1C
0.86 µM		Cc1ccc2ncnc(Nc3cccc(C(F)(F)F)c3)c2c1
25 µM		CC(C)(C)c1cc(/C=C(\C#N)c2c(C#N)c(N)nn2-c2ccccc2)cc(C(C)(C)C)c1O
43 µM		COC(=O)c1ccc(NCc2cc(O)ccc2O)cc1
31.5 µM		N#C/C(=C\c1cc(O)c(O)c(Br)c1)C(=O)NCCCNC(=O)/C(C#N)=C/c1cc(O)c(O)c(Br)c1
0.06 µM	10 µM and 20 µM	Cc1ccc2ncnc(Nc3cccc(Cl)c3)c2c1
